From patent US12662451B2, “Chemical compounds and uses thereof” (GLAXOSMITHKLINE INTELLECTUAL PROPERTY (NO.4) LIMITED, priority 2023, dated 2026)
Where two headings read alike, the source gives them in different places.

Legend:
[1] = test system: SW48 human colorectal cancer cells (MSI-H cancer cells); assay: SW48 cell viability, CellTiter-Glo, 120 hours (Example B); conditions: for CC50: Homo sapiens
[2] = test system: SW48 human colorectal cancer cells; assay: Calculated free drug potency in SW48 cell assay, corrected with media free fraction (Example C); format: cell-based; conditions: Homo sapiens, SW48, SW48 pCC50 corrected with measured free fraction in cell assay media
Outline: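 Free drug potency derives from correcting SW48 assay concentrations with the unbound fraction in medium. That fraction came from RED against pH 7.4 PBS, 1 μM nominal compound, 4 h at 37 °C, quantified by LC-MS/MS peak area ratios at T=240 versus T=0 min.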

[3] = Cell culture media unbound percentage and stability by rapid equilibrium dialysis (Example C); format: in vitro ADME; conditions: bovine, cell assay medium (RPMI-1640 with 10% fetal bovine serum), pH 7.4, rapid equilibrium dialysis, 4 hours at 37° C., read-out: Cell Culture Media Binding (% unbound)
Outline: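 Percent unbound in cell assay medium came from the LC-MS/MS receiver:donor peak area ratio, with stability taken as the 240 min over 0 min ratio. Set-up: 1 μM nominal compound in medium dialysed against pH 7.4 PBS (100 mM phosphate, 150 mM NaCl), 4 h, 37° C, shaken, in triplicate.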

[4] = biological target: T1, recombinant full-length WRN protein (1-1432) (Homo sapiens, UniProt Q14191); assay: WRN unwinding activity, fluorogenic 384-well assay (Example A); format: biochemical; conditions: WRN unwinding activity, 4 hr; Table 2; read-out: 4 hr UNW pIC50 (converted)
T1 construct: recombinant full-length WRN protein (1-1432)
Outline: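 Read-out is end-point unwinding of a fluorophore/quencher duplex (ex 525, em 598 nm) after 60 min with 200 μM ATP and 12 nM DNA (2× stocks), EDTA stop. Compound first sat 4 h with 200 pM WRN (2× stock) in pH 8.0 Tris buffer; four-parameter fit gives pIC50.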

[5] = SW48, 120 h, read-out: SW48 pCC50, SW48 cell viability, 120 hours incubation (converted), Table 2
[6] = SW48, read-out: SW48 pCC50, measured potency from Example B, as repeated in Table 3 (converted)

T1 sequence (Q14191 whole entry): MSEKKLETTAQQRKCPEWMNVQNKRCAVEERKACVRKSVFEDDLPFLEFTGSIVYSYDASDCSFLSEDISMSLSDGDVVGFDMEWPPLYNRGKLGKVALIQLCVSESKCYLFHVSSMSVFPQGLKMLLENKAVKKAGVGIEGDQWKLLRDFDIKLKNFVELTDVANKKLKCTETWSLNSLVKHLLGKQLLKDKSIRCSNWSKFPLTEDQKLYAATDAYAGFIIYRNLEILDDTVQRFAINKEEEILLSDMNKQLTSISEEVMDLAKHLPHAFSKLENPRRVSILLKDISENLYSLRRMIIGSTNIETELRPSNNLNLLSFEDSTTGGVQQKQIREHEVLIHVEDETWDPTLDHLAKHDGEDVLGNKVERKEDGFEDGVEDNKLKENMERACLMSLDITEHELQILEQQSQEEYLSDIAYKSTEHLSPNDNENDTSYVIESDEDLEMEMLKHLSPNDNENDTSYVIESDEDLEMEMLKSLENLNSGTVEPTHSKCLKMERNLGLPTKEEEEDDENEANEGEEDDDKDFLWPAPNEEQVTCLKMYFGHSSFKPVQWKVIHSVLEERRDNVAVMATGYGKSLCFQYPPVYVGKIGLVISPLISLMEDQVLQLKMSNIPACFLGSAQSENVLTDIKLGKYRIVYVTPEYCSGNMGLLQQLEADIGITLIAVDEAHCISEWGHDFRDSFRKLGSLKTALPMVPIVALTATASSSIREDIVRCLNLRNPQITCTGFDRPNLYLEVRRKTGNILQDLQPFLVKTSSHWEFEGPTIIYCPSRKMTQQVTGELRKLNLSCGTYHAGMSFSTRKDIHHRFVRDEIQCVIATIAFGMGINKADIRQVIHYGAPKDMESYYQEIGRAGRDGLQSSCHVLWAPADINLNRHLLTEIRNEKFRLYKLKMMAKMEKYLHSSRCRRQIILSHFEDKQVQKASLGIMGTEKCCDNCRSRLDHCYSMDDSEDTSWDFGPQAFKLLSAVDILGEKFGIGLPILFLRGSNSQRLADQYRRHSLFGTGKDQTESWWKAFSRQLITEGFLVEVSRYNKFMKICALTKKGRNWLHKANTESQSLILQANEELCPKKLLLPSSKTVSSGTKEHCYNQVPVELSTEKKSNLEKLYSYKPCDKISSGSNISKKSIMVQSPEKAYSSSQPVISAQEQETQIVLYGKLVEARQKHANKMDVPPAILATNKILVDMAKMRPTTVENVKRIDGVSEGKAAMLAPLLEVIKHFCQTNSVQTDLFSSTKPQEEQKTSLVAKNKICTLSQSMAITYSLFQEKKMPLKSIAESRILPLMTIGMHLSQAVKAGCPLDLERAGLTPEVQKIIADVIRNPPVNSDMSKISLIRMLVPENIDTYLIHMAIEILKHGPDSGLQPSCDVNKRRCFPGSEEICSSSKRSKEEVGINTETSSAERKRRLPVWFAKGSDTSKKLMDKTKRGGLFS

Structure (SMILES)	CC50 [1, 5]	CC50 [2]	fraction unbound at 4 h, 1 µM [3]	IC50 [4]	CC50 [1, 6]	SW48 pCC50 ([1]; SW48 cell viability, 120 hours incubation, Table 2)
Cc1nc2cc(S(=O)(=O)N(C)c3ccc([C@@H]4C[C@@H](N5CCCC(F)(F)C5)C[C@H](C(=O)Nc5ccc(C(F)(F)F)cc5F)[C@H]4C(=O)O)cc3)ccc2n1C (stereo in doubt) [Example 362, rel-(1R,2R,4S,6S)-4-(3,3-difluoropiperidin-1-yl)-2-((2-fluoro-4-(trifluoromethyl)phenyl)carbamoyl)-6-(4-((N,1,2-trimethyl-1H-benzo[d]imidazole)-5-sulfonamido)phenyl)cyclohexane-1-carboxylic acid]	10000 nM	1700 nM	0.169	1580 nM	–	–
Cc1nc2cc(S(=O)(=O)N(C)c3ccc([C@H]4C[C@@H](OCC5(C)COC5)C[C@@H](C(=O)Nc5ccc(C(F)(F)F)cc5F)[C@@H]4C(=O)O)cc3)ccc2n1C (stereo in doubt) [Example 367, rel-(1R,2R,4R,6S)-2-((2-fluoro-4-(trifluoromethyl)phenyl)carbamoyl)-4-((3-methyloxetan-3-yl)methoxy)-6-(4-((N,1,2-trimethyl-1H-benzo[d]imidazole)-5-sulfonamido)phenyl)cyclohexane-1-carboxylic acid]	79.4 nM	11.5 nM	0.145	1.58 nM	79.4 nM	–
Cc1nc2cc(S(=O)(=O)N(C)c3ccc([C@H]4C[C@@H](N5CC[C@H](F)C5)C[C@@H](C(=O)Nc5ccc(C(F)(F)F)cc5F)[C@@H]4C(=O)O)cc3)ccc2n1C (stereo in doubt) [Example 377, rel-(1R*,2R*,4R*,6S*)-2-((2-fluoro-4-(trifluoromethyl)phenyl)carbamoyl)-4-((S)-3-fluoropyrrolidin-1-yl)-6-(4-((N,1,2-trimethyl-1H-benzo[d]imidazole)-5-sulfonamido)phenyl)cyclohexane-1-carboxylic acid]	126 nM	8.91 nM	0.071	5.01 nM	126 nM	–
Cc1nc2cc(S(=O)(=O)N(C)c3ccc([C@@H]4C[C@H](N5CC[C@H](F)C5)C[C@H](C(=O)Nc5ccc(C(F)(F)F)cc5F)[C@H]4C(=O)O)cc3)ccc2n1C (stereo in doubt) [Example 378, rel-(1R*,2R*,4R*,6S*)-2-((2-fluoro-4-(trifluoromethyl)phenyl)carbamoyl)-4-((S)-3-fluoropyrrolidin-1-yl)-6-(4-((N,1,2-trimethyl-1H-benzo[d]imidazole)-5-sulfonamido)phenyl)cyclohexane-1-carboxylic acid]	3980 nM	832 nM	0.208	50.1 nM	3980 nM	–
Cc1nc2cc(S(=O)(=O)N(C)c3ccc([C@H]4C[C@H](N5CC[C@H](F)C5)C[C@@H](C(=O)Nc5ccc(C(F)(F)F)cc5F)[C@@H]4C(=O)O)cc3)ccc2n1C (stereo in doubt) [Example 380, rel-(1R*,2R*,4S*,6S*)-2-((2-fluoro-4-(trifluoromethyl)phenyl)carbamoyl)-4-((S)-3-fluoropyrrolidin-1-yl)-6-(4-((N,1,2-trimethyl-1H-benzo[d]imidazole)-5-sulfonamido)phenyl)cyclohexane-1-carboxylic acid]	10000 nM	331 nM	0.0334	39.8 nM	–	–
Cc1nc2cc(S(=O)(=O)N(C)c3ccc([C@@H]4C[C@H](N5CC[C@@H](F)C5)C[C@H](C(=O)Nc5ccc(C(F)(F)F)cc5F)[C@H]4C(=O)O)cc3)ccc2n1C (stereo in doubt) [Example 381, rel-(1R*,2R*,4R*,6S*)-2-((2-fluoro-4-(trifluoromethyl)phenyl)carbamoyl)-4-((R)-3-fluoropyrrolidin-1-yl)-6-(4-((N,1,2-trimethyl-1H-benzo[d]imidazole)-5-sulfonamido)phenyl)cyclohexane-1-carboxylic acid]	7940 nM	2450 nM	0.308	79.4 nM	7940 nM	–
Cc1nc2cc(S(=O)(=O)N(C)c3ccc([C@H]4C[C@@H](N5CC[C@@H](F)C5)C[C@@H](C(=O)Nc5ccc(C(F)(F)F)cc5F)[C@@H]4C(=O)O)cc3)ccc2n1C (stereo in doubt) [Example 382, rel-(1R*,2R*,4R*,6S*)-2-((2-fluoro-4-(trifluoromethyl)phenyl)carbamoyl)-4-((R)-3-fluoropyrrolidin-1-yl)-6-(4-((N,1,2-trimethyl-1H-benzo[d]imidazole)-5-sulfonamido)phenyl)cyclohexane-1-carboxylic acid]	63.1 nM	8.51 nM	0.136	1.58 nM	63.1 nM	–
Cc1nc2cc(S(=O)(=O)N(C)c3ccc([C@H]4C[C@H](N5CC[C@@H](F)C5)C[C@@H](C(=O)Nc5ccc(C(F)(F)F)cc5F)[C@@H]4C(=O)O)cc3)ccc2n1C (stereo in doubt) [Example 383, rel-(1R*,2R*,4S*,6S*)-2-((2-fluoro-4-(trifluoromethyl)phenyl)carbamoyl)-4-((R)-3-fluoropyrrolidin-1-yl)-6-(4-((N,1,2-trimethyl-1H-benzo[d]imidazole)-5-sulfonamido)phenyl)cyclohexane-1-carboxylic acid]	7940 nM	468 nM	0.0589	7.94 nM	7940 nM	–
Cc1cc(N(C)S(=O)(=O)c2ccc3c(c2)nc(C)n3C)ccc1[C@H]1CCC[C@@H](C(=O)Nc2ccc(C(F)(F)F)cc2F)[C@@H]1C(=O)O (stereo in doubt) [Example 386, rel-(1R,2R,6S)-2-((2-fluoro-4-(trifluoromethyl)phenyl)carbamoyl)-6-(2-methyl-4-((N,1,2-trimethyl-1H-benzo[d]imidazole)-5-sulfonamido)phenyl)cyclohexane-1-carboxylic acid]	2000 nM	200 nM	0.1	3.98 nM	2000 nM	–
Cc1nc2cc(S(=O)(=O)N(C)c3ccc([C@H]4C[C@H]5COC[C@H]5[C@@H](C(=O)Nc5ccc(C(F)(F)F)cc5F)[C@@H]4C(=O)O)cc3)ccc2n1C (stereo in doubt) [Example 392, rel-(3aR,4R,5R,6S,7aR)-4-((2-fluoro-4-(trifluoromethyl)phenyl)carbamoyl)-6-(4-((N,1,2-trimethyl-1H-benzo[d]imidazole)-5-sulfonamido)phenyl)octahydroisobenzofuran-5-carboxylic acid]	251 nM	25.1 nM	0.0993	1.58 nM	251 nM	–
O=C(O)[C@@H]1[C@@H](c2ccc(-c3cnsc3)cc2)CCC[C@H]1C(=O)Nc1ccc(C(F)(F)F)cc1F [Example 16, (1R,2R,6S)-2-((2-fluoro-4-(trifluoromethyl)phenyl)carbamoyl)-6-(4-(isothiazol-4-yl)phenyl)cyclohexane-1-carboxylic acid]	3980 nM	200 nM	0.0499	3.98 nM	3980 nM	–
CN(c1ccc([C@H]2CCC[C@@H](C(=O)Nc3ccc(C(F)(F)F)cc3F)[C@@H]2C(=O)O)cc1)S(=O)(=O)c1cc(I)c2occc2c1 [Example 94, (1R,2R,6S)-2-((2-fluoro-4-(trifluoromethyl)phenyl)carbamoyl)-6-(4-((7-iodo-N-methylbenzofuran)-5-sulfonamido)phenyl)cyclohexane-1-carboxylic acid]	–	5.62 nM	0.0014	50.1 nM	3980 nM	5.4
CN(C)Cc1cccc(S(=O)(=O)N(C)c2ccc([C@H]3CCC[C@@H](C(=O)Nc4ccc(C(F)(F)F)cc4F)[C@@H]3C(=O)O)cc2)c1 [Example 97]	1000 nM	240 nM	0.241	2 nM	1000 nM	–
CN(c1ccc([C@H]2CCC[C@@H](C(=O)Nc3ccc(C(F)(F)F)cc3F)[C@@H]2C(=O)O)cc1)S(=O)(=O)c1ccc2scnc2c1 [Example 101, (1R,2R,6S)-2-((2-fluoro-4-(trifluoromethyl)phenyl)carbamoyl)-6-(4-(N-methylbenzo[d]thiazole-5-sulfonamido)phenyl)cyclohexane-1-carboxylic acid]	1260 nM	43.7 nM	0.0349	5.01 nM	1260 nM	–
CN(c1ccc([C@H]2CCC[C@@H](C(=O)Nc3ccc(C(F)(F)F)cc3F)[C@@H]2C(=O)O)cc1)S(=O)(=O)c1ccc2c(ccn2C)c1 [Example 107, (1R,2S,6R)-2-(4-((N, 1-dimethyl-1H-indole)-5-sulfonamido)phenyl)-6-((2-fluoro-4-(trifluoromethyl)phenyl)carbamoyl)cyclohexane-1-carboxylic acid]	794 nM	19.5 nM	0.0245	5.01 nM	794 nM	–
